Marks after values point to notes of the source that are not given here.
Experiments:
[1] = Pharmacokinetics of butylphthalide in rats (literature values); settings: rat; calculated based on the literature value of AUC0-inf (p.o. 60 mg/kg vs i.v. 10 mg/kg)
[2] = Pharmacokinetic test in rats; assay type: in vivo, Male SD rats; settings: rat; p.o. 10 mg/kg vs i.v. 1 mg/kg
Description: Male SD rats (weighing 180-260g) were administered with the compound of formula (I) intravenously at a dose of 1.0 mg/kg via tail vein injection, and orally at a dose of 10.0 mg/kg. Each group consisted of 3 animals. The solvent for administration was a solution of 5% DMSO + 5% polyethoxylated castor oil (Cremophor EL) in normal saline. The rats were fasted for about 12 h before administration and were given ad libitum access to food 4 h after administration, and water was available all the time. Blood was collected from the orbit at about 0.2 mL before administration and 5 min, 15 min, 30 min, 1 h, 2 h, 4 h, 6 h, 8 h, and 24 h after administration. The samples were placed in EDTA-K2 anticoagulant EP tubes in an ice bath, and subjected to low-speed centrifugation at 4°C and 3500 rpm for 10 min to isolate plasma, which was then stored at -20°C before analysis. The plasma concentration of the compound of formula (I) was determined using liquid chromatography-tandem mass spectrometry (LC-MS/MS). Pharmacokinetic parameters were calculated from the analysis results of the samples using WinNonlin software.

[3] = test system: rat spinal cord injury model; assay: Rat spinal cord injury model, pathological changes
[4] = test system: rat spinal cord injury model; assay: Rat spinal cord injury model, Neurofilament 200 (NF200) expression; assay type: in vivo, Male SD rats; settings: mean±SD, n=6

With `CCCCC1OC(=O)c2ccccc21` (stereo not drawn) [Butylphthalide, butylphthalide, reference compound] the F [1] was 16.6* %.

For `CCC/C(O)=C1/C(=O)Oc2ccccc21` [Compound (I)], the F [2] was 144.2%.

In the case of “(Z)-3-(1-hydroxybutenyl)benzofuran-2-one tromethamine salt [Example 10]”, the “cases showing a reduction in lesions” value ([3]; 20 mg/kg dose group, spinal cord histopathology) is reported as 4 out of 6, the “pathological changes versus the model control group” value ([3]; low-dose group (5 mg/kg)) is reported as “No significant differences” and the “Positive Count (number per field of view)” value ([4]; high dose 20 mg/kg) is reported as 30.3±7.4 number per field of view. The “Positive Count (number per field of view)” value ([4]; low dose 5 mg/kg) was 22.5± 7.5 number per field of view.
